Data set [1] has as its system larvae of the mustard beetle (Phaedon cochleariae). The experiment in a line: Phaedon Larvae Test. It counts as in vivo. Conditions: cabbage leaves dipped, concentration of active compound 1000 ppm. An excerpt: (§1) Solvent: 30 parts by weight of acetone
For the next data set, the system named is Leptosphaeria nodorum. The experiment in a line: Leptosphaeria nodorum Test (Wheat)/protective. To be noted: protective, application rate 750 g/ha, evaluation 12-14 days after inoculation. It counts as in vivo. As for the experimental part: Leptosphaeria nodorum Test (Wheat)/protective
To test for protective activity, young wheat plants are sprayed with the preparation of active compound at the stated application rate. 1 day after the treatment, the plants are inoculated with an aqueous spore suspension of Leptosphaeria nodorum and then remain at 100% rel. atmospheric humidity and 20° C. for 48 h. The plants are then placed in a greenhouse at 80% rel. atmospheric humidity and a temperature of 22° C.
Evaluation is carried out 12-14 days after the inoculation. 0% means an efficacy which corresponds to that of the control, whereas an efficacy of 100% means that no infection is observed.

Data set [2] relates to caterpillars of the armyworm (Spodoptera frugiperda). Kind of data set: Spodoptera frugiperda Test. It counts as in vivo. Conditions: cabbage leaves dipped, concentration of active compound 1000 ppm.
Excerpt: Spodoptera frugiperda Test
as §1

In the next data set the test system is Sphaerotheca fuliginea. The experiment in a line: Sphaerotheca Test (Cucumber)/protective. The data set is classed as in vivo. To be noted: protective, application rate 100 g/ha, evaluation 10 days after inoculation. As to the method: Sphaerotheca Test (Cucumber)/protective
To test for protective activity, young plants are sprayed with the preparation of active compound at the stated application rate. After the spray coating has dried on, the plants are inoculated with an aqueous spore suspension of Sphaerotheca fuliginea. The plants are then placed in a greenhouse at about 23° C. and a relative atmospheric humidity of about 70%.
(§2) Evaluation is carried out 10 days after the inoculation. 0% means an efficacy which corresponds to that of the control, whereas an efficacy of 100% means that no infection is observed.

A further data set relates to Podosphaera leucotricha. Kind of data set: Podosphaera Test (Apple)/protective. The data set is classed as in vivo. To be noted: protective, application rate 100 g/ha, evaluation 10 days after inoculation. As to the method: Podosphaera Test (Apple)/protective
To test for protective activity, young plants are sprayed with the preparation of active compound at the stated application rate. After the spray coating has dried on, the plants are inoculated with an aqueous spore suspension of the apple mildew pathogen Podosphaera leucotricha. The plants are then placed in a greenhouse at about 23° C. and a relative atmospheric humidity of about 70%.
as §2

A further data set has as its system Alternaria solani. The experiment in a line: Alternaria Test (Tomato)/protective. It counts as in vivo. To be noted: protective, application rate 750 g/ha, evaluation 7 days after inoculation. As to the method: Alternaria Test (Tomato)/protective
To test for protective activity, young tomato plants are sprayed with the preparation of active compound at the stated application rate. 1 day after the treatment, the plants are inoculated with a spore suspension of Alternaria solani and then remain at 100% rel. humidity and 20° C. for 24 h. The plants then remain at 96% rel. atmospheric humidity and a temperature of 20° C.
Evaluation is carried out 7 days after the inoculation. 0% means an efficacy which corresponds to that of the control, whereas an efficacy of 100% means that no infection is observed.

Data set [3] concerns greenhouse red spider mite (Tetranychus urticae). The experiment in a line: Tetranychus Test (OP-resistant/dip Treatment). To be noted: bean plants dipped, OP-resistant, concentration of active compound 100 ppm.
Procedure: Emulsifier: 1 part by weight of alkylaryl polyglycol ether
After the desired period of time, the kill in % is determined. 100% means that all spider mites have been killed; 0% means that none of the spider mites have been killed.
Data set [4] has as its system green peach aphid (Myzus persicae). Kind of data set: Myzus test. It counts as in vivo. Conditions: broad bean seedlings dipped, concentration of active compound 1000 ppm.
Excerpt: as §1

For another data set, the system named is Pyricularia oryzae. It counts as in vivo. Conditions: rice, protective, application rate 125 g/ha, evaluation 7 days after inoculation.
The next data set deals with Plasmopara viticola. The experiment in a line: Plasmopara Test (Grapevine)/protective. The data set is classed as in vivo. Conditions: protective, application rate 100 g/ha, evaluation 6 days after inoculation. As for the experimental part: Plasmopara Test (Grapevine)/protective
To test for protective activity, young plants are sprayed with the preparation of active compound at the stated application rate. After the spray coating has dried on, the plants are inoculated with an aqueous spore suspension of Plasmopara viticola and then remain in an incubation cabinet at about 20° C. and 100% relative atmospheric humidity for 1 day. The plants are then placed in a greenhouse at about 21° C. and about 90% relative atmospheric humidity for 5 days. The plants are then moistened and placed in an incubation cabin for 1 day.
Evaluation is carried out 6 days after the inoculation. 0% means an efficacy which corresponds to that of the control, whereas an efficacy of 100% means that no infection is observed.

For the compound `COC(=O)C(=COCF)c1ccccc1COc1ccn(-c2ccc(Cl)cc2)n1` [Example 1, methyl 2-[2-({[1-(4-chlorophenyl)-1H-pyrazol-3-yl]oxy}methyl)phenyl]-3-(fluoromethoxy)-2-acrylate], the chromatographic logP – broadly, lipophilicity estimated from chromatographic retention – was found to be 3.91. The compound further gave a kill rate in data set [1] of 100%. In addition, the efficacy in the data set on Leptosphaeria nodorum is at least 98%. Also, in data set [2], the kill rate was found to be 100%. This compound gave an efficacy with Sphaerotheca fuliginea of at least 98%. For the same compound, the efficacy with Podosphaera leucotricha was at least 98%. This compound had an efficacy in the data set with Alternaria solani of at least 80%. This compound had a kill rate in data set [3] of 90%. In addition, the kill rate in data set [4] was determined as 100%. This compound came in with an efficacy with Pyricularia oryzae of at least 80%. Moreover, the efficacy in the data set on Plasmopara viticola was at least 98%.

Source of the values: patent US6562856B1, “Pyrazolyl benzyl ether deriviatives having a fluoromethoxy group and the use thereof as pesticides” (Bayer Aktiengesellschaft, priority 1999, dated 2003).
